These are literature values, as cited in patent US12409239B2, “Particles for use in hyperpolarization” (BEACON MRI LTD, priority 2021, dated 2025).

The conditions of this data set: background statement.

SMILES strings stand for the structures.

As for `CC(=O)C(=O)O` [pyruvate/pyruvic acid, pyruvic acid], the T1 entry is “about a minute”.
